Reference: patent US4053635A, “Substituted amides of 3-methyl-4-phenyl-3-butenoic acid, with a high hypolipemizing activity” (Istituto Biochimico Italiano di Loredana Lorenzini S.a.s., priority 1974, dated 1977)

Legend:
[1] = hyperlipemia from diet (Table III); assay type: in vivo, Sprague-Dawley male rat; conditions: 200 mg/kg/day per os; for Hepatic Cholesterol ± SE: hyperlipidic diet 4 weeks (diet alone 16.4±0.8); for Hepatic triglycerides ± SE: hyperlipidic diet 4 weeks (diet alone 56.4+3.8); for Triglyceridemia ± ES: hyperlipidic diet 4 weeks (diet alone 117.3±17.7); for Cholesterolemia ± SE: hyperlipidic diet 4 weeks (diet alone 129.9±9.3)
Description: °In parentheses, significativity towards the set treated only with
*Animal: Sprague-Dawley male rat of the initial weight of 120 g (in
parentheses the N. of animals).
Treatment: Hyperlipemia derived from hyperlipidic diet according to Nath N. et al., Nutrition J. 67, 289, 1959; the diet has been administered for 4 weeks. Each drug has been administered at the dose of 200/mg/kg/day per os for 4 weeks.

[2] = former works (U.S. Pat. No. 3,231,469; Canonica et al.); cited from earlier work
[3] = hypertriglyceridemia from Fructose (Table II); assay type: in vivo, Sprague-Dawley male rat; conditions: 200 mg/kg day by gastric probing, 5 days
Description: *Animal: Sprague-Dawley male rat, 150 g.; 6 rat sets. Treatment accordin
to E. A. Nikkila et al., Life sci.5,89,1966; substances administered at
the dose of 200 mg/kg day by gastric probing in two daily administrations

[4] = hypertriglyceridemia from ethanol (Table IV); assay type: in vivo, Sprague-Dawley male rat; conditions: 300 mg/kg daily, gastric intubation; ethanol twice a day, 4 days (controls 74.20±3.70, ethanol 135.80±13.30)
Description: | *Animal: Sprague-Dawley male rat of the average weight of 150 g. | Treatment: 0.31 ml. ethanol in 4 ml. water twice a day (in parenthesis, | the N. of animals) for 4 days. The substances have been provided by | gastric intubation at the daily dose of 300 mg/kg.

[5] = in vivo; conditions: rat, po, read-out: LD 50 per os in the rat
[6] = hyperlipemia from ethanol (Table V); assay type: in vivo, Sprague-Dawley male rat; conditions: gastric intubation; for cholesterolemia: ethyl alcohol 10% 1 week (controls 85±6, ethanol 90±4); for Triglyceridemia ±SE: ethyl alcohol 10% 1 week (controls 87±14, ethanol 238±44)
Description: Sprague-Dawley male rat of the average weight of 150 g. ethyl alcohol 10%
in water for 1 week (in parenthesis, the N. of animals). The substances
have been administered by gastric intubation at the dose of 200 and 300
mg/kg/day. In experiments of subchronic toxicity, the diethylamide of […]

[7] = experiments of subchronic toxicity; assay type: in vivo; conditions: per os, 150 mg/kg/day and 300 mg/kg/day, 3 or 6 months
Description: mg/kg/day. In experiments of subchronic toxicity, the diethylamide of
the doses of 150 mg/kg/day and of 300 mg/kg/day for 3 or 6 months: the […]

[8] = toxicity in the test animal; conditions: in vivo
[9] = 1st experiment (controls 41.7±1.7, fructose 62.9±5.5)
[10] = 2nd experiment (controls 45.6±4.7, fructose 94.0±12.1)
[11] = 3rd experiment (controls 77.1±12.1, fructose 155.2±19.2)
[12] = 4th experiment (controls 45.3±4.5, fructose 87.4±14.4)

SMILES | Hepatic Cholesterol ± SE [1] [mg/g fresh tissue] | Hepatic triglycerides ± SE [1] [mg/g fresh tissue] | Triglyceridemia ± ES [1] [mg/100 ml] | Cholesterolemia ± SE [1] [mg/100 ml] | Triglyceridemia ±SE [3, 9] [mg/100 ml] | Triglyceridemia ±SE [3, 10] [mg/100 ml] | Triglyceridemia ±SE [3, 11] [mg/100 ml] | Triglyceridemia ±SE [3, 12] [mg/100 ml] | Triglyceridemia ±SE [4] [mg/100 ml] | LD50 [5] [mg/kg] | further results
C/C(=C\c1ccccc1)CC(=O)O [I, 3-methyl-4-phenyl-3-butenoic acid] | 20.2±0.9 | 37.7±5.6 | 91.5±13.6 | 142.4±7.7 | 42.8±3.7 | 40.8±4.5 | 100.8±13.8 | 57.6±2.6 | 275.11±31.63 | – | hypolipemic characteristics [2]: interesting hypolipemic characteristics
C/C(=C\c1ccccc1)CC(=O)NCCO [IIIa, Monoethanolamide of 3-methyl-4-phenyl-3-butenoic acid] | – | – | – | – | 62.9±6.4 | – | – | – | – | – | –
C/C(=C\c1ccccc1)CC(=O)NC1CCCCC1 [IIIb, Monocyclohexylamide of 3-methyl-4-phenyl-3-butenoic acid] | 22.1±1.1 | 37.5±3.0 | 81.5±7.9 | 135.7±11.6 | – | 59.1±7.5 | – | – | – | 3000 | –
C/C(=C\c1ccccc1)CC(=O)N(CCO)CCO [IIIc, Diethanolamide of 3-methyl-4-phenyl-3-butenoic acid] | – | – | – | – | – | 69.6±3.9 | – | – | – | 1500 | –
CCN(CC)C(=O)C/C(C)=C/c1ccccc1 [IIId, Diethylamide of 3-methyl-4-phenyl-3-butenoic acid] | 19.4±0.7 | 25.9±3.8 | 77.4±7.5 | 124.9±4.6 | – | – | 87.1±13.4 | – | 90.0±14.83 | – | cholesterolemia ([6]; 200 mg/kg/day): 77±3 mg/100 ml; Triglyceridemia ±SE ([6]; 200 mg/kg/day): 169±20 mg/100 ml; cholesterolemia ([6]; 300 mg/kg/day): 81±3 mg/100 ml; Triglyceridemia ±SE ([6]; 300 mg/kg/day): 117±20 mg/100 ml; tolerability in subchronic toxicity [7]: fairly well tolerated; toxicity in the test animal [8]: low toxicity
C/C(=C\c1ccccc1)CC(=O)N1CCOCC1 [IIIe, Morpholide of 3-methyl-4-phenyl-3-butenoic acid] | – | – | – | – | – | – | – | 61.1±5.1 | – | 1000 | –
C/C(=C\c1ccccc1)CC(N)=O [II] | – | – | – | – | – | – | – | – | – | – | hypolipemic characteristics [2]: interesting hypolipemic characteristics
CCOC(=O)C(C)(C)Oc1ccc(Cl)cc1 [chlofibrate, ethyl ester of 2-(p-chlorophenoxy)-2-methyl propanoic acid, reference compound] | 18.5±1 | 30.3±2.5 | 60.0±4.3 | 138.8±10.7 | 42.2±5.4 | 48.9±2.4 | 62.9±7.2 | 59.1±3.6 | 121.50±12.26 | – | cholesterolemia ([6]; 200 mg/kg/day): 70±3 mg/100 ml; Triglyceridemia ±SE ([6]; 200 mg/kg/day): 183±29 mg/100 ml
